Biological target: T1, CwTPS8 (Curcuma wenyujin, UniProt A0A8E5B8H5)
T1 construct: complete ORF in pMAL-His (pMAL-c2x with His(8)-tag), E. coli BL21(DE3), Ni-NTA purified; tag removal not described
Test: GC-MS of hexane-extracted products
Type: biochemical
Details: formation of main product β-caryophyllene; 50 mM HEPES pH 7.5, 10 mM MgCl2, 5 mM DTT, 5% glycerol; 30°C, 10 min; 10-150 µM FPP; read-out: K m of β-caryophyllene

T1 sequence (A0A8E5B8H5 entry or part of it): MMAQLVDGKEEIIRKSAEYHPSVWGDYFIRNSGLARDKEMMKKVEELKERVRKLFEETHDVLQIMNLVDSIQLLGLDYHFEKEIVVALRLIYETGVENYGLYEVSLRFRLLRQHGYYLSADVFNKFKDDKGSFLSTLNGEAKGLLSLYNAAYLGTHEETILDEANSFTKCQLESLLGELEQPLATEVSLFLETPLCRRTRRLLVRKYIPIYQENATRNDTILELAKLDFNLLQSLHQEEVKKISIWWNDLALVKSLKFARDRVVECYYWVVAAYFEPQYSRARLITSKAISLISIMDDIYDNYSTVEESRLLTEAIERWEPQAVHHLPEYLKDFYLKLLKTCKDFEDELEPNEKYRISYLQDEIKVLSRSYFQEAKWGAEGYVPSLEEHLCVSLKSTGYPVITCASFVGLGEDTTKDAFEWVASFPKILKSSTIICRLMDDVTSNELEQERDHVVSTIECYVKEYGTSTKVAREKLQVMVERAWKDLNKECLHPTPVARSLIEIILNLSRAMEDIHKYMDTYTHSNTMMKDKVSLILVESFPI

**Q.** Which Km does the source give for `CC(C)=CCC/C(C)=C/CC/C(C)=C/CO[P@@](=O)(O)OP(=O)(O)O` [FPP] here?
**A.** 28 µM

Source: article PMC12532338, “Characterization of a sesquiterpene synthase and a short-chain dehydrogenase in zerumbone biosynthesis and the applications in engineered Saccharomyces cerevisiae” (Frontiers in Plant Science, 2025)
